Test results as given in ChEMBL document CHEMBL1126980, “New, potent anthelmintic and acaricidal agents: 4-deoxy-4-thio-substituted avermectin derivatives” (Bioorg Med Chem Lett, 1993).
Values after ≈ are worked out from the molar mass of the structure shown.

Tests used:
[1] = system: Artemia salina; test: Tested in vitro for the biological efficacy using Artemia salina (brine shrimp) immobilization assay; format: functional
[2] = system: Caenorhabditis elegans; test: Tested in vitro for the biological efficacy using Caenorhabditis elegans binding assay; format: functional, organism-based
[3] = system: Ovis aries; test: Tested for the anthelmintic efficacy against Oesphagostomum columbianum at 0.1 mg/kg; range is 91-100%; format: functional
[4] = system: Ovis aries; test: Tested for the anthelmintic efficacy against Cooperia curticei at 0.1 mg/kg; range is 51-75%; format: functional
[5] = system: Ovis aries; test: Tested for the anthelmintic efficacy against Ostertagia circumcincta at 0.1 mg/kg; range is 91-100%; format: functional
[6] = system: Ovis aries; test: Tested for the anthelmintic efficacy against Trichostrongylus axei at 0.1 mg/kg; range is 91-100%; format: functional
[7] = system: Ovis aries; test: Tested for the anthelmintic efficacy against Trichostrongylus colubriformis at 0.1 mg/kg; range is 76-90%; format: functional
[8] = system: Ovis aries; test: Tested for anthelmintic efficacy against Haemonchus contortus at 0.1 mg/kg; range is 91-100%; format: functional
[9] = system: Tetranychus urticae; test: Tested for acaricidal efficacy using a Tetranychus urticae (two-spotted spider mite, TSSM) contact assay; format: functional; set-up: concentration or dose not given beside the values
[10] = system: Trichostrongylus colubriformis; test: Tested in vivo for the biological efficacy using Trichostrongylus colubriformis gerbil assay; format: functional
[11] = system: Ovis aries; test: Tested for the anthelmintic efficacy against Cooperia curticei at 0.1 mg/kg; format: functional
[12] = system: Ovis aries; test: Tested for the anthelmintic efficacy against Trichostrongylus axei at 0.1 mg/kg; range is 76-90%; format: functional
[13] = system: Ovis aries; test: Tested for the anthelmintic efficacy against Trichostrongylus colubriformis at 0.1 mg/kg; range is 91-100%; format: functional
[14] = system: Ovis aries; test: Tested for the anthelmintic efficacy against Ostertagia circumcincta at 0.1 mg/kg; range is 76-90%; format: functional
[15] = system: Ovis aries; test: Tested for the anthelmintic efficacy against Cooperia curticei at 0.1 mg/kg; range is 91-100%; format: functional
[16] = system: Ovis aries; test: Tested for the anthelmintic efficacy against Trichostrongylus colubriformis at 0.1 mg/kg; range is 51-75%; format: functional
[17] = system: Ovis aries; test: Tested for the anthelmintic efficacy against Ostertagia circumcincta at 0.1 mg/kg; format: functional
[18] = system: Ovis aries; test: Tested for the anthelmintic efficacy against Trichostrongylus axei at 0.1 mg/kg; range is 51-75%; format: functional
[19] = system: Ovis aries; test: Tested for the anthelmintic efficacy against Ostertagia circumcincta at 0.1 mg/kg; range is 51-75%; format: functional
[20] = system: Ovis aries; test: Tested for the anthelmintic efficacy against Cooperia curticei at 0.1 mg/kg; range is 76-90%; format: functional
[21] = system: Ovis aries; test: Tested for the anthelmintic efficacy against Cooperia curticei at 0.15 mg/kg; range is 91-100%; format: functional
[22] = system: Ovis aries; test: Tested for the anthelmintic efficacy against Oesphagostomum columbianum at 0.15 mg/kg; format: functional
[23] = system: Ovis aries; test: Tested for the anthelmintic efficacy against Ostertagia circumcincta at 0.15 mg/kg; range is 76-90%; format: functional
[24] = system: Ovis aries; test: Tested for the anthelmintic efficacy against Trichostrongylus axei at 0.15 mg/kg; range is 91-100%; format: functional
[25] = system: Ovis aries; test: Tested for the anthelmintic efficacy against Trichostrongylus colubriformis at 0.15 mg/kg; range is 91-100%; format: functional
[26] = system: Ovis aries; test: Tested for anthelmintic efficacy against Haemonchus contortus at 0.15 mg/kg; range is 76-90%; format: functional

SMILES | IC100 [1] [ng/mL] | IC50 [2] [ng/mL] | Reduction [3] [%] | Reduction [5] [%] | Reduction [6] [%] | Reduction [7] [%] | Reduction [8] [%] | Mortality [9] [%] | ED85 [10] [mg/kg] | Reduction [11] [%] | Reduction [13] [%] | Reduction [15] [%] | further results
CCC(C)[C@H]1O[C@]2(C=C[C@@H]1C)C[C@@H]1C[C@@H](C/C=C(\C)[C@@H](O[C@H]3C[C@H](OC)[C@@H](O[C@H]4C[C@H](OC)[C@H](S(=O)(=O)CCO)[C@H](C)O4)[C@H](C)O3)[C@@H](C)/C=C/C=C3\CO[C@@H]4[C@H](O)C(C)=C[C@@H](C(=O)O1)[C@]34O)O2 (some centres not stated) | 870 | 0.363 (≈ 0.376 nM) | 91 | 91 | 91 | 76 | 91 | 34 | 0.063 |  |  |  | Reduction [4]: 51%
CCC(C)[C@H]1O[C@]2(C=C[C@@H]1C)C[C@@H]1C[C@@H](C/C=C(\C)[C@@H](O[C@H]3C[C@H](OC)[C@@H](O[C@H]4C[C@H](OC)[C@H](SCCOC(C)=O)[C@H](C)O4)[C@H](C)O3)[C@@H](C)/C=C/C=C3\CO[C@@H]4[C@H](O)C(C)=C[C@@H](C(=O)O1)[C@]34O)O2 (some centres not stated) | 1730 | 0.525 (≈ 0.538 nM) | 91 | 91 |  |  | 91 | 68 | 0.125 | <50 | 91 |  | Reduction [12]: 76%
CCC(C)[C@H]1O[C@]2(C=C[C@@H]1C)C[C@@H]1C[C@@H](C/C=C(\C)[C@@H](O[C@H]3C[C@H](OC)[C@@H](O[C@H]4C[C@H](OC)[C@@H](S(C)(=O)=O)[C@H](C)O4)[C@H](C)O3)[C@@H](C)/C=C/C=C3\CO[C@@H]4[C@H](O)C(C)=C[C@@H](C(=O)O1)[C@]34O)O2 (some centres not stated) | 430 | 0.098 (≈ 0.105 nM) | 91 |  | 91 |  | 91 | 85 | 0.125 |  | 91 | 91 | Reduction [14]: 76%
CCC(C)[C@H]1O[C@]2(C=C[C@@H]1C)C[C@@H]1C[C@@H](C/C=C(\C)[C@@H](O[C@H]3C[C@H](OC)[C@H](SCCNC(C)=O)[C@H](C)O3)[C@@H](C)/C=C/C=C3\CO[C@@H]4[C@H](O)C(C)=C[C@@H](C(=O)O1)[C@]34O)O2 (some centres not stated) | 430 |  | 91 | 91 | 91 |  | 91 |  | 0.063 | <50 | 91 |  | 
CCC(C)[C@H]1O[C@]2(C=C[C@@H]1C)C[C@@H]1C[C@@H](C/C=C(\C)[C@@H](O[C@H]3C[C@H](OC)[C@@H](O[C@H]4C[C@H](OC)[C@H](SCCNC(C)=O)[C@H](C)O4)[C@H](C)O3)[C@@H](C)/C=C/C=C3\CO[C@@H]4[C@H](O)C(C)=C[C@@H](C(=O)O1)[C@]34O)O2 (some centres not stated) | 870 | 0.127 (≈ 0.13 nM) | 91 | 91 | 91 |  | 91 | 29 | 0.031 |  |  | 91 | Reduction [16]: 51%
CCC(C)[C@H]1O[C@]2(C=C[C@@H]1C)C[C@@H]1C[C@@H](C/C=C(\C)[C@@H](O[C@H]3C[C@H](OC)[C@@H](O[C@H]4C[C@H](OC)[C@H](SCCO)[C@H](C)O4)[C@H](C)O3)[C@@H](C)/C=C/C=C3\CO[C@@H]4[C@H](O)C(C)=C[C@@H](C(=O)O1)[C@]34O)O2 (some centres not stated) | 650 | 0.784 (≈ 0.84 nM) | 91 | 91 | 91 | 76 | 91 | 55 | 0.063 | <50 |  |  | 
CCC(C)[C@H]1O[C@]2(C=C[C@@H]1C)C[C@@H]1C[C@@H](C/C=C(\C)[C@@H](O[C@H]3C[C@H](OC)[C@@H](O[C@H]4C[C@H](OC)[C@@H](SCCO)[C@H](C)O4)[C@H](C)O3)[C@@H](C)/C=C/C=C3\CO[C@@H]4[C@H](O)C(C)=C[C@@H](C(=O)O1)[C@]34O)O2 (some centres not stated) | 870 | 0.091 (≈ 0.0975 nM) | 91 |  |  | 76 | 91 | 70 | 0.063 | <50 |  |  | Reduction [17]: <50%; Reduction [18]: 51%
CCC(C)[C@H]1O[C@]2(C=C[C@@H]1C)C[C@@H]1C[C@@H](C/C=C(\C)[C@@H](O[C@H]3C[C@H](OC)[C@@H](O[C@H]4C[C@H](OC)[C@@H](SC)[C@H](C)O4)[C@H](C)O3)[C@@H](C)/C=C/C=C3\CO[C@@H]4[C@H](O)C(C)=C[C@@H](C(=O)O1)[C@]34O)O2 (some centres not stated) | 3470 | 0.226 (≈ 0.25 nM) | 91 |  |  |  | 91 | 98 | 0.25 |  |  |  | Reduction [19]: 51%; Reduction [20]: 76%; Reduction [12]: 76%; Reduction [16]: 51%
CCC(C)[C@H]1O[C@]2(C=C[C@@H]1C)C[C@@H]1C[C@@H](C/C=C(\C)[C@@H](O[C@H]3C[C@H](OC)[C@@H](O[C@H]4C[C@H](OC)[C@H](SC)[C@H](C)O4)[C@H](C)O3)[C@@H](C)/C=C/C=C3\CO[C@@H]4[C@H](O)C(C)=C[C@@H](C(=O)O1)[C@]34O)O2 (some centres not stated) | 1730 | 0.06 (≈ 0.0664 nM) | 91 |  | 91 | 76 | 91 | 92 | 0.063 |  |  | 91 | Reduction [14]: 76%
CCC(C)[C@H]1O[C@]2(C=C[C@@H]1C)C[C@@H]1C[C@@H](C/C=C(\C)[C@@H](O[C@H]3C[C@H](OC)[C@H](S(=O)(=O)CCO)[C@H](C)O3)[C@@H](C)/C=C/C=C3\CO[C@@H]4[C@H](O)C(C)=C[C@@H](C(=O)O1)[C@]34O)O2 (some centres not stated) | 870 |  |  |  |  |  |  | 94 | > 0.25 |  |  |  | Reduction [21]: 91%; Reduction [22]: <50%; Reduction [23]: 76%; Reduction [24]: 91%; Reduction [25]: 91%; Reduction [26]: 76%
